The values that follow come from PubChem BioAssay AID256 (DTP/NCI, 2004).

“And” between values parts separate entries of the source, which are not always exact repeats. Equal entries are not always repeated. Toxic doses and inconclusive results are not listed.

The test system of this assay is CD2F1 mice, L1210 leukemia ip, survival T/C. The assay is described as follows: NCI In Vivo Anticancer Drug Screen. Data for tumor model L1210 Leukemia (intraperitoneal) in CD2F1 (CDF1) mice. Particulars: higher = longer survival. In outline:
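Compound-dosed mice with transplantable tumor versus matched vehicle controls; endpoint ratio T/C reported.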

[1] abbreviates: endpoint: mean survival time, dose: 25.0 mg/kg/injection, schedule: Q04DX003 (ip), vehicle: Klucel (hydroxypropylcellulose) (HPC).
The mark [2] stands for this setting: endpoint: mean survival time, dose: 100.0 mg/kg/injection, schedule: Q01DX009 (ip), vehicle: saline with Tween-80.
[3] abbreviates: endpoint: mean survival time, dose: 200.0 mg/kg/injection, schedule: Q01DX009 (ip), vehicle: saline with Tween-80.
The mark [4] stands for this setting: endpoint: mean survival time, dose: 400.0 mg/kg/injection, schedule: Q01DX009 (ip), vehicle: saline with Tween-80.
Where [5] appears, read: endpoint: mean survival time, dose: 12.5 mg/kg/injection, schedule: Q01DX005 (ip), vehicle: distilled water + Tween-80.
The mark [6] stands for this setting: endpoint: mean survival time, dose: 25.0 mg/kg/injection, schedule: Q01DX005 (ip), vehicle: distilled water + Tween-80.
[7] abbreviates: endpoint: mean survival time, dose: 50.0 mg/kg/injection, schedule: Q01DX005 (ip), vehicle: distilled water + Tween-80.
[8] abbreviates: endpoint: mean survival time, dose: 100.0 mg/kg/injection, schedule: Q01DX005 (ip), vehicle: distilled water + Tween-80.
Setting [9] is: endpoint: mean survival time, dose: 200.0 mg/kg/injection, schedule: Q01DX005 (ip), vehicle: distilled water + Tween-80.
Setting [10] is: endpoint: mean survival time, dose: 100.0 mg/kg/injection, schedule: Q04DX003 (ip), vehicle: saline with Tween-80.
[11] abbreviates: endpoint: mean survival time, dose: 200.0 mg/kg/injection, schedule: Q04DX003 (ip), vehicle: saline with Tween-80.
Setting [12] is: endpoint: mean survival time, dose: 100.0 mg/kg/injection, schedule: Q04DX003 (ip), vehicle: saline.
The mark [13] stands for this setting: endpoint: mean survival time, dose: 200.0 mg/kg/injection, schedule: Q04DX003 (ip), vehicle: saline.
Setting [14] is: endpoint: mean survival time, dose: 400.0 mg/kg/injection, schedule: Q04DX003 (ip), vehicle: saline.

Regarding `Nc1ccc(NC(=S)Nc2ccc(N)cc2)cc1`, the T/C by setting is: under setting [1], 104 % of control; (endpoint: mean survival time, dose: 50.0 mg/kg/injection, schedule: Q04DX003 (ip), vehicle: Klucel (hydroxypropylcellulose) (HPC)) 106 % of control; (endpoint: mean survival time, dose: 100.0 mg/kg/injection, schedule: Q04DX003 (ip), vehicle: Klucel (hydroxypropylcellulose) (HPC)) 98 % of control.
In the case of `Cc1cc(=O)[nH][nH]c1=O`, the T/C under setting [2] is 104 % of control, the T/C under setting [3] is 97 % of control and the T/C under setting [4] is 101 % of control.
`CC1(C)CC(Cl)(C(O)c2ccc([N+](=O)[O-])cc2)C(=O)c2ccccc21` (stereo unspecified): the T/C was 95 % of control (endpoint: mean survival time, dose: 100.0 mg/kg/injection, schedule: Q04DX003 (ip), vehicle: acetone); 98 % of control (endpoint: mean survival time, dose: 200.0 mg/kg/injection, schedule: Q04DX003 (ip), vehicle: acetone); 88 % of control (endpoint: mean survival time, dose: 400.0 mg/kg/injection, schedule: Q04DX003 (ip), vehicle: acetone).
As to `CCC(CO)Nc1nc2c(c(=O)n(C)c(=O)n2C)n1C` (stereo unspecified), the T/C is 101 % of control under setting [5]; 100 % of control under setting [6]; 101 % of control under setting [7]; 94 % of control under setting [8]; 101 % of control under setting [9].
For `CC(C)CCCC(C)C1C(O)CC2C3CCC4CC(O)CCC4(C)C3CCC21C` (stereo unspecified), the T/C by setting is: (endpoint: mean survival time, dose: 25.0 mg/kg/injection, schedule: Q01DX001 (ip), vehicle: saline with Tween-80) 103 % of control; (endpoint: mean survival time, dose: 50.0 mg/kg/injection, schedule: Q01DX001 (ip), vehicle: saline with Tween-80) 95 % of control; (endpoint: mean survival time, dose: 100.0 mg/kg/injection, schedule: Q01DX001 (ip), vehicle: saline with Tween-80) 97 % of control.
On to `O=C(CCl)OCC(Cl)Cl`, for which the T/C reads like this: under setting [2], 104 % of control; under setting [3], 112 % of control.
In the case of `NC1=NCCCN1`, the T/C is 109 % of control (endpoint: mean survival time, dose: 3.0 mg/kg/injection, schedule: Q01DX009 (ip), vehicle: saline sonified); 111 % of control (endpoint: mean survival time, dose: 6.0 mg/kg/injection, schedule: Q01DX009 (ip), vehicle: saline sonified); 94 % of control (endpoint: mean survival time, dose: 12.0 mg/kg/injection, schedule: Q01DX009 (ip), vehicle: saline sonified).
On to `O=C(COc1ccccc1)Nc1ccc([N+](=O)[O-])cc1`, for which the T/C under setting [10] was 100 % of control; the T/C under setting [11] was 99 % of control; the T/C (endpoint: mean survival time, dose: 400.0 mg/kg/injection, schedule: Q04DX003 (ip), vehicle: saline with Tween-80) was 100 % of control.
As to `O=S1(=O)c2ccccc2C(=NO)c2ccccc21`, the T/C is 92 % of control under setting [12], 96 % of control under setting [13] and 106 % of control under setting [14].
With `C=CCc1cc(CNCC(O)c2ccccc2)c(O)c(OC)c1` (stereo unspecified), the T/C (endpoint: mean survival time, dose: 25.0 mg/kg/injection, schedule: Q01DX009 (ip), vehicle: Klucel (hydroxypropylcellulose) (HPC)) is 89 % of control and the T/C (endpoint: mean survival time, dose: 50.0 mg/kg/injection, schedule: Q01DX009 (ip), vehicle: Klucel (hydroxypropylcellulose) (HPC)) was 112 % of control.
Regarding `COC1OC(COC(C)=O)C(n2cnc3c2c(=O)n(C)c(=O)n3C)C=C1NC(C)=O` (stereo unspecified), the T/C is 94 % of control under setting [5]; 96 % of control under setting [6]; 90 % of control under setting [7]; 94 % of control under setting [8]; 108 % of control under setting [9].
For `O=C(Nc1cccc2c(NC(=O)c3ccccc3)cccc12)c1ccccc1`, the T/C runs as follows: under setting [2], 94 % of control; under setting [3], 95 % of control; under setting [4], 91 % of control.
`Cn1cnc([N+](=O)[O-])c1[Se]c1nc(N)nc2nc[nH]c12`: the T/C (endpoint: mean survival time, dose: 3.12 mg/kg/injection, schedule: Q01DX009 (ip), vehicle: water) is 111 % of control; the T/C (endpoint: mean survival time, dose: 6.25 mg/kg/injection, schedule: Q01DX009 (ip), vehicle: water) was 124 % of control; the T/C (endpoint: mean survival time, dose: 7.3 mg/kg/injection, schedule: Q01DX005 (ip), vehicle: water) was 121 % of control; the T/C (endpoint: mean survival time, dose: 25.0 mg/kg/injection, schedule: Q01DX005 (ip), vehicle: water) was 153 % of control; the T/C (endpoint: mean survival time, dose: 25.0 mg/kg/injection, schedule: Q01DX009 (ip), vehicle: water) was 160 % of control; the T/C (endpoint: mean survival time, dose: 37.5 mg/kg/injection, schedule: Q01DX005 (ip), vehicle: water) is 178 % of control. The T/C (endpoint: mean survival time, dose: 50.0 mg/kg/injection, schedule: Q01DX009 (ip), vehicle: water) was 151 % of control.
Turning to `Cc1ccc(NC(=O)N(CCCl)N=O)cc1C`, the T/C by setting is: (endpoint: mean survival time, dose: 1.6 mg/kg/injection, schedule: Q01DX001 (ip), vehicle: other) 115 % of control; (endpoint: mean survival time, dose: 5.7 mg/kg/injection, schedule: Q01DX001 (ip), vehicle: other) 188 % of control; (endpoint: mean survival time, dose: 8.6 mg/kg/injection, schedule: Q01DX001 (ip), vehicle: other) 190 % of control; (endpoint: mean survival time, dose: 13.0 mg/kg/injection, schedule: Q01DX001 (ip), vehicle: other) 204 % of control; (endpoint: mean survival time, dose: 20.0 mg/kg/injection, schedule: Q01DX001 (ip), vehicle: other) 309 % of control; (endpoint: mean survival time, dose: 29.0 mg/kg/injection, schedule: Q01DX001 (ip), vehicle: other) 191 % of control.
As to `C[N+](C)(C)c1ncnc2c1ncn2C1CCCO1` (stereo unspecified), the T/C is 93 % of control (endpoint: mean survival time, dose: 12.5 mg/kg/injection, schedule: Q01DX009 (ip), vehicle: saline); 98 % of control (endpoint: mean survival time, dose: 25.0 mg/kg/injection, schedule: Q01DX009 (ip), vehicle: saline); 112 % of control (endpoint: mean survival time, dose: 50.0 mg/kg/injection, schedule: Q01DX009 (ip), vehicle: saline); 101 % of control (endpoint: mean survival time, dose: 100.0 mg/kg/injection, schedule: Q01DX009 (ip), vehicle: saline).
Take `CN1CCc2[nH]c3ccccc3c2C1`: the T/C (endpoint: mean survival time, dose: 75.0 mg/kg/injection, schedule: Q01DX001 (ip), vehicle: other) is 93 % of control; the T/C (endpoint: mean survival time, dose: 100.0 mg/kg/injection, schedule: Q04DX002 (ip), vehicle: Klucel (hydroxypropylcellulose) (HPC)) is 95 % of control; the T/C (endpoint: mean survival time, dose: 150.0 mg/kg/injection, schedule: Q01DX001 (ip), vehicle: other) was 93 % of control; the T/C (endpoint: mean survival time, dose: 200.0 mg/kg/injection, schedule: Q04DX002 (ip), vehicle: Klucel (hydroxypropylcellulose) (HPC)) is 103 % of control.
For the molecule `N#CC(=C=[N-])[n+]1ccccc1`, the T/C (endpoint: mean survival time, dose: 12.5 mg/kg/injection, schedule: Q04DX003 (ip), vehicle: Klucel (hydroxypropylcellulose) (HPC)) is 98 % of control and the T/C under setting [1] is 100 % of control.
Take `N/N=C(\N)c1ccc2ccc3cccnc3c2n1`: the T/C runs as follows: under setting [12], 89 % of control; under setting [13], 104 % of control; under setting [14], 108 % of control.
For the molecule `C=C1C(=O)OC2CC(C)C3C(O)C(O)C(O)C3(C)CC12` (stereo unspecified), the T/C by setting is: under setting [10], 102 % of control; under setting [11], 104 % of control.
Regarding `C=CCC1(CO)CCCCC1O` (stereo unspecified), the T/C is 96 % of control (endpoint: mean survival time, dose: 100.0 mg/kg/injection, schedule: Q04DX002 (ip), vehicle: saline with Tween-80); 100 % of control (endpoint: mean survival time, dose: 200.0 mg/kg/injection, schedule: Q04DX002 (ip), vehicle: saline with Tween-80); 92 % of control (endpoint: mean survival time, dose: 400.0 mg/kg/injection, schedule: Q04DX002 (ip), vehicle: saline with Tween-80).
Take `COc1cc2c(c(OC)c1OC)-c1cccc(=O)cc1C(NC(C)=O)CC2` (stereo unspecified): the T/C (endpoint: median survival time, dose: 2.5 mg/kg/injection, schedule: Q01DX005 (ip), vehicle: saline) is 107 % of control; the T/C (endpoint: median survival time, dose: 5.0 mg/kg/injection, schedule: Q01DX005 (ip), vehicle: saline) is 111 % of control; the T/C (endpoint: median survival time, dose: 10.0 mg/kg/injection, schedule: Q01DX005 (ip), vehicle: saline) was 108 % of control and 111 % of control; the T/C (endpoint: median survival time, dose: 20.0 mg/kg/injection, schedule: Q01DX005 (ip), vehicle: saline) is 117 % of control and 111 % of control; the T/C (endpoint: median survival time, dose: 40.0 mg/kg/injection, schedule: Q01DX005 (ip), vehicle: saline) is 116 % of control and 111 % of control; the T/C (endpoint: median survival time, dose: 80.0 mg/kg/injection, schedule: Q01DX005 (ip), vehicle: saline) was 122 % of control. For the same molecule, for the setting “endpoint: median survival time, dose: 160.0 mg/kg/injection, schedule: Q01DX005 (ip), vehicle: saline”, the T/C is 122 % of control.
